What is called IC50 is the concentration at which inhibition is half-maximal.

Structures are written as SMILES.

For this experiment, the target named is kappa opioid receptor (OPRK1) (Homo sapiens (Human), UniProt P41145). As to the kind of experiment: OPRK1 antagonist assay (b-arrestin-2-TEV / b-lactamase reporter cell line, EC80 U-50488 challenge). Format: cell-based. The conditions noted are these: read-out: IC50 nM (% inhib if other than 50%); antagonist mode vs EC80 U-50488; NA = not active at concentrations up to 10 μM.
kappa opioid receptor (OPRK1), sequence (P41145 whole entry): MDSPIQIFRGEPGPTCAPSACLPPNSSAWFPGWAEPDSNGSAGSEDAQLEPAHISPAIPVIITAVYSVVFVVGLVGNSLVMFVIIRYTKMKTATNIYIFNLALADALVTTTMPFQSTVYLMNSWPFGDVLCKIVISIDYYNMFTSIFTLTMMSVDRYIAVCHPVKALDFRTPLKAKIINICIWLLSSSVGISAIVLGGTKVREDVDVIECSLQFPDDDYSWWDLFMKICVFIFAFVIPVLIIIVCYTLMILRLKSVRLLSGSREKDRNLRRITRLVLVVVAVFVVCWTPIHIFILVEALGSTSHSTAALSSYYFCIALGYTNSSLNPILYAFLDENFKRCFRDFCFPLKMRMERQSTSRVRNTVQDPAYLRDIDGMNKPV
With `Cc1ccc2nc(N3CCC(NC4CCCCC4C)CC3)c(-c3nc(C)no3)cc2c1` (centres unmarked) [compound 348], the IC50 came out at 1.3 nM.
For `COC(=O)c1cc(Cl)cnc1N1CCC(NC2CCCCC2)C(O)C1` (centres unmarked) [compound 43] the value was 52 nM; for `COC(=O)c1cc(C)c(C)nc1N1CCC(NC2CCCCC2)C(OC)C1` (centres unmarked) [compound 163], 915 nM; for `COC(=O)c1cc(Br)cnc1N1CCC(NC2CCCCCC2)C(CO)C1` (centres unmarked) [compound 74], 58 nM.
For `CCOC(=O)c1noc(-c2cc3cc(C)ccc3nc2N2CCC(NC3CCCCC3O)CC2)n1` (centres unmarked) [compound 336] the value was 4360 nM; for `Cc1noc(-c2cc3cc(F)ccc3nc2N2CC[C@@H](NC3CCCCC3)[C@H](O)C2)n1` [compound 241], 59 nM; for `Cc1nc(-c2cc3ccc(F)c(C)c3nc2N2CCC(N[C@H]3CCCC[C@@H]3O)CC2)no1` [compound 510], 115 nM.
Turning to `Cc1ccc2nc(N3CCC(NC4CCC(F)(F)CC4)CC3)c(-c3noc(C)n3)cc2c1` [compound 436], the IC50 was 26 nM.
`Cc1cnc(N2CCC(NC3CCCC3)C(CO)C2)c(-c2nc(C)no2)c1` (centres unmarked) [compound 201]: the half-maximal inhibitory concentration (IC50) amounted to 116 nM.
For `COC1CN(c2nc3ccccc3cc2-c2nc(C)no2)CCC1NCC(C)C` (centres unmarked) [compound 374] the value was 45 nM; for `Cc1cnc(N2CC[C@@H](NC3CCCCC3)[C@H](O)C2)c(-c2ncco2)c1` [compound 169], 2500 nM; for `CCc1noc(-c2cc(Br)cnc2N2CC[C@@H](NC3CCCCC3)[C@H](O)C2)n1` [compound 137], 1600 nM.
For `COC(=O)c1cc(Br)cnc1N1CCC(NC2CCC(C)CC2)CC1` (centres unmarked) [compound 16] the value was 536 nM.
As for `CO[C@H]1CN(c2nc3ccc(C)cc3cc2-c2nc(C)no2)CC[C@H]1NC1CCC(F)(F)CC1` [compound 521], the IC50 stood at 278 nM.
For `CO[C@@H]1CN(c2nc3cc(F)ccc3cc2-c2nc(C)no2)CC[C@@H]1NC1CCCCC1` [compound 514] the value was 55 nM; for `CO[C@H]1CN(c2ncc(C)cc2-c2cnc(C)cn2)CC[C@H]1NC1CCCCC1` [compound 472], 105 nM; for `Cc1noc(-c2cc3ccc(F)cc3nc2N2CCC(NC3CCCCC3)CC2)n1` [compound 515], 7 nM.
Then `COC1CN(c2nc3ccccc3cc2-c2nc(C)no2)CCC1NC1CCCC1` (centres unmarked) [compound 308], with 2.5 nM; and `CCOC(=O)c1cc(Br)cnc1N1CCC(NC2CCCC[C@@H]2O)CC1` (some centres unmarked) [compound 8], with 579 nM.
Then `COC(=O)c1cc(I)cnc1N1CCC(NC2CCCCC2)CC1` [compound 36], with 79 nM; and `Cc1nc(-c2cc3ccc(F)c(C)c3nc2N2CCC(NC3CCOCC3)CC2)no1` [compound 511], with 227 nM.
Regarding `COC(=O)c1cc(Br)cnc1N1CCC(NC2CC3CCC2C3)CC1` (centres unmarked) [compound 28], the IC50 came out at 387 nM.
For `COC1CN(c2ncc(C)cc2C=O)CCC1NC1CCCCC1` (centres unmarked) [C69] the value was 30000 nM; for `CO[C@H]1CN(c2nc3ccc(F)cc3cc2-c2nc(C)no2)CC[C@H]1NCC(C)C` [compound 530], 5100 nM.
For `Cc1nc(-c2cc3ccc(F)cc3nc2N2CCC(NC3CCCC3)CC2)no1` [compound 481] the value was 10 nM; for `Cc1ccc2nc(N3CCC(NC4CCCCC4)C(CO)C3)c(-c3nc(C)no3)cc2c1` (centres unmarked) [compound 215], 3 nM.
In the case of `Cc1ccc2nc(N3CCC(N4CCCCC4)CC3)c(-c3nc(C)no3)cc2c1` [compound 266], the 50% inhibitory concentration (IC50) is 1740 nM.
Take `Cc1noc(-c2cc3cccc(C)c3nc2N2CCC(NC3CCOCC3)CC2)n1` [compound 275]: the IC50 came to 98 nM.
For `Cc1cc(-c2nc(C3CC3)no2)c(N2CCC(NCC(C)C)CC2)nn1` [compound 509] the value was 30 nM.
Consider `CCN(CC)C(=O)c1cc(Br)cnc1N1CC[C@@H](NC2CCCCC2)[C@H](O)C1` [compound 139], for which the concentration for half-maximal inhibition (IC50) is 4800 nM.
Then `COC(=O)c1cc(Br)cnc1N1CCC(NC2CCCCC2)C(CO)C1` (centres unmarked) [compound 68], with 40 nM; and `COC(=O)c1cc(Cl)cnc1N1CCC(NC2CCCCC2)CC1` [compound 40], with 159 nM.
For `COC(=O)c1cc(I)cnc1N1CCC(NC2CCCCC2C)C(CO)C1` (centres unmarked) [compound 89] the value was 116 nM; for `Cc1cnc(N2CC[C@@H](NC3CCCCC3)[C@H](O)C2)c(C#N)c1` [C67], 37000 nM.
Regarding `CCOC(=O)c1cc(C)c(C)nc1N1CCC(NC2CCCCC2)C(CO)C1` (centres unmarked) [compound 159], the 50% inhibitory concentration (IC50) amounted to 35 nM.
For `COC(=O)c1cc(Br)cnc1N1CCC(NC2CCCC2)CC1` [compound 24], the IC50 was 120 nM.
For `COC(=O)c1cc(I)cnc1N1CC[C@@H](NC2CCCCC2)[C@H](O)C1` [compound 106] the value was 24 nM; for `CCc1ccc2nc(N3CCC(NC4CCCCC4)C(OC)C3)c(-c3nc(C)no3)cc2c1` (centres unmarked) [compound 268], 37 nM; for `Cc1noc(-c2cc3ccc(Cl)cc3nc2N2CCC(NCC(C)C)CC2)n1` [compound 541], 45 nM.
For `COC(=O)c1cc(Br)cnc1N1CCC(NC(=O)C2CCCCC2)CC1` [C58] the value was greater than 20000 nM; for `Cc1noc(-c2nc3ccccc3nc2N2CCC(NC3CCCC3)C(CO)C2)n1` (centres unmarked) [compound 202], 187 nM.
For `COC1CN(c2nc3ccc(C)cc3cc2-c2nc(C)no2)CCC1NCC(C)C` (centres unmarked) [compound 375] the value was 12 nM; for `COC1CN(c2ncc(C(F)(F)F)cc2-c2nc(C)no2)CCC1NC1CCCCC1` (centres unmarked) [compound 174], 180 nM; for `COC(=O)c1cc(C)c(C)nc1N1CCC(NC2CCCCC2)C(CO)C1` (centres unmarked) [compound 162], 1400 nM.
For the molecule `Cc1noc(-c2cc3ccc(F)c(C)c3nc2N2CCC(NCC(C)C)CC2)n1` [compound 494], the half-inhibitory concentration (IC50) was determined as 64 nM.
Then `COC(=O)c1cc(N)cnc1N1CCC(NC2CCCCC2)CC1` [compound 85], with 1800 nM; and `COC(=O)c1cc(C)c(C)nc1N1CC[C@@H](NC2CCCCC2)[C@H](O)C1` [compound 161], with 157 nM.
Then `Cc1ccc2nc(N3CCC(NC4CCC(F)(F)CC4)CC3)c(-c3nc(C)no3)cc2c1` [compound 435], with 6 nM; and `COC(=O)c1cc(Br)cnc1N1CCC(O)C(NC2CCCCC2)C1` (centres unmarked) [compound 47], with 2800 nM; and `Cc1nc(-c2cc3cc(F)ccc3nc2N2CCC(N[C@@H]3CCCC[C@H]3O)CC2)no1` [compound 475], with 101 nM.
Then `CCOC(=O)c1cc2cc(C)ccc2nc1N1CCC(NC2CCOCC2)CC1` [compound 289], with 184 nM.
As for `Cc1noc(-c2cc(C(F)(F)F)cnc2N2CC[C@@H](NC3CCCCC3)[C@H](O)C2)n1` [compound 173], the concentration for half-maximal inhibition (IC50) worked out at 1200 nM.
For `OCC1CN(c2nc3ccccc3cc2-c2ncco2)CCC1NC1CCCCC1` (centres unmarked) [compound 226] the value was 107 nM; for `CCc1noc(-c2cc3cc(C)ccc3nc2N2CCC(NC3CCOCC3)C(OC)C2)n1` (centres unmarked) [compound 327], 5.6 nM; for `Cc1noc(-c2cc(C)c(C)nc2N2CC[C@H](NC3CCCCC3)[C@@H](O)C2)n1` [compound 543], 32 nM.
On to `COC1CN(c2nc(C)c(C)cc2-c2nc(C)no2)CCC1NC1CCCCCC1` (centres unmarked) [compound 319], for which the IC50 amounted to 21 nM.
Then `CO[C@@H]1CN(c2nnc(C)cc2C(=O)OC(C)C)CC[C@@H]1NC1CCCCC1` [compound 404], with 63 nM; and `Cc1noc(-c2cc3ccccc3nc2N2CCC(NC3CCCCC3)C(F)C2)n1` (centres unmarked) [compound 204], with 52 nM; and `Cc1ccc2nc(N3CCC(NCC(C)C)CC3)c(-c3ccncn3)cc2c1` [compound 534], with 600 nM.
Then `CCc1ccc2nc(N3CCC(N[C@H](C)CC)CC3)c(-c3nc(C)no3)cc2c1` [compound 525], with 17 nM; and `COC(=O)c1cc(I)cnc1N1CCC(NC2CCCCC2)C(O)C1` (centres unmarked) [compound 126], with 112 nM; and `Cc1cnc(N2CCC(NC3CCOCC3)C(CO)C2)c(-c2nc(C)no2)c1` (centres unmarked) [compound 195], with 700 nM.
Then `CNC(=O)c1cc(Br)cnc1N1CCC(NC2CCCCC2)CC1` [compound 87], with 19000 nM; and `Cc1noc(-c2cc3c(nc2N2CC[C@@H](NC4CCCCC4)[C@H](O)C2)CCC3)n1` [compound 207], with 276 nM; and `Cc1noc(-c2cc(C)c(C)nc2N2CCC(NC3CCCCC3)CC2)n1` [compound 221], with 24 nM.
For the molecule `Cc1cnc(N2CCC(C)(NC3CCCCC3)CC2)c(-c2nc(C)no2)c1` [compound 357], the 50% inhibitory concentration (IC50) was 22.3 nM.
For `CCOC(=O)c1nc2cc(C)ccc2nc1N1CCC(NC2CCCCC2)C(CO)C1` (centres unmarked) [compound 373] the value was 63 nM; for `Cc1ccc2nc(N3CCC(NC4CCCCC4O)CC3)c(-c3noc(C)n3)cc2c1` (centres unmarked) [compound 450], 11 nM.
Then `O=Cc1cc(Br)cnc1N1CC[C@@H](NC2CCCCC2)[C@H](O)C1` [compound 129], with 799 nM.
Regarding `COC1CN(c2nc3ccccc3cc2-c2ncco2)CCC1NC1CCCCC1` (centres unmarked) [compound 225], the half-maximal inhibitory concentration (IC50) is 70 nM.
For `O[C@@H]1CN(c2nc3ccccc3cc2-c2ncco2)CC[C@H]1NC1CCCCC1` [compound 218] the value was 475 nM.
For `COC(=O)c1cc(Br)cnc1N1CCC(CNC2CCCCC2)CC1` [compound 31] the value was 3500 nM.
For `Cc1ccc2cc(-c3nc(C)no3)c(N3CCC(NC4CCOCC4)CC3)nc2c1` [compound 257] the value was 930 nM.
As for `CCOC(=O)c1cc2cc(C)ccc2nc1N1CCC(NC2CCCCC2)C(CO)C1` (centres unmarked) [compound 288], the 50% inhibitory concentration (IC50) was found to be 15 nM.
For `Cc1noc(-c2cc3ccccc3nc2N2CCC(NC3CCCCC3)C(CO)C2)n1` (centres unmarked) [compound 186] the value was 5 nM; for `CCOC(=O)c1cc(C(=O)OC)c(C)nc1N1CCC(NC2CCCCC2)C(O)C1` (centres unmarked) [compound 94], 61 nM.
For `Cc1nc(-c2cc3ccc(F)cc3nc2N2CCC(N[C@H]3CCCOC3)CC2)no1` [compound 486] the value was 1070 nM.

These data come from patent publication US20250346584A1, “NOVEL KAPPA OPIOID LIGANDS” (The Scripps Research Institute, priority 2012, published 2025).
